Assay results taken from ChEMBL document CHEMBL2424535, “Fragment-based discovery of focal adhesion kinase inhibitors” (Bioorg Med Chem Lett, 2013).

Legend:
[1] = Partition coefficient, log P of the compound; assay type: physicochemical; details: octanol/water
[2] = Lipophilicity, log D of the compound at pH 7.4; assay type: physicochemical; details: buffer

Row | Structure (SMILES) | logP ([1]; read-out: logP) | logD ([2]; read-out: logD) | logP [1] | logD [2]
1 | Cc1ccc(-n2nc(C(C)(C)C)cc2NC(=O)Nc2ccc(-n3cnc(Cl)c3Cl)cc2)cc1 | > 5.4 | 3.96 |  | 
2 | Cc1ccc(-n2nc(C(C)(C)C)cc2NC(=O)Nc2ccc(-c3ccc(OCc4ccccc4)nc3)cc2)cc1 | > 5.4 | 3.94 |  | 
3 | Cc1ccc(-n2nc(C(C)(C)C)cc2NC(=O)Nc2ccc(-c3nncn3C)cc2)cc1 | 3.34 | 3.21 |  | 
4 | Cc1ccc(-n2nc(C(C)(C)C)cc2NC(=O)Nc2ccc(-c3ccncc3)cc2)cc1 | > 5 | 3.58 |  | 
5 | Cc1ccc(-n2nc(C(C)(C)C)cc2NC(=O)Nc2ccc(-c3ccc(N)nc3)cc2)cc1 | 5.13 | 3.88 |  | 
6 | Cc1ccc(-n2nc(C(C)(C)C)cc2NC(=O)Nc2ccc(-n3cnc(C)c3)cc2)cc1 | 4.83 | 4.08 |  | 
7 | COc1cc(OC)nc(-c2ccc(NC(=O)Nc3cc(C(C)(C)C)nn3-c3ccc(C)cc3)cc2)n1 | > 5.4 | 3.94 |  | 
8 | Cc1ccc(-n2nc(C(C)(C)C)cc2NC(=O)Nc2ccc(-c3cnco3)cc2)cc1 | 4.96 | 4.49 |  | 
9 | Cc1ccc(-n2nc(C(C)(C)C)cc2NC(=O)Nc2ccc(-n3ccnc3)cc2)cc1 | 4.35 | 3.85 |  | 
10 | Cc1ccc(-n2nc(C(C)(C)C)cc2NC(=O)Nc2ccc(-n3cnnn3)cc2)cc1 | 4.14 | 3.79 |  | 
11 | Cc1ccc(-n2nc(C(C)(C)C)cc2NC(=O)Nc2ccc(-c3cccnc3)cc2)cc1 | 4.84 | 4.25 |  | 
12 | Cc1ccc(-n2nc(C(C)(C)C)cc2NC(=O)Nc2ccc(-n3cnc4c(N)ncnc43)cc2)cc1 | 3.98 | 4.05 |  | 
13 | Cc1ccc(-n2nc(C(C)(C)C)cc2NC(=O)Nc2ccc(-c3csnn3)cc2)cc1 | 5.15 | 4.58 |  | 
14 | Cc1ccc(-n2nc(C(C)(C)C)cc2NC(=O)Nc2ccc(-n3cnnc3)cc2)cc1 | 4.07 | 3.94 |  | 
15 | COc1ccc(-c2ccc(NC(=O)Nc3cc(C(C)(C)C)nn3-c3ccc(C)cc3)cc2)cn1 | 4.25 | 4.02 |  | 
16 | Cc1ccc(-n2nc(C(C)(C)C)cc2NC(=O)Nc2ccc(-n3nnnc3C)cc2)cc1 | 3.86 | 3.81 |  | 
17 | Cc1ccc(-n2nc(C(C)(C)C)cc2NC(=O)Nc2ccc(-n3cncc3C)cc2)cc1 | 4.6 | 4.33 |  | 
18 | Cc1ccc(-n2nc(C(C)(C)C)cc2NC(=O)Nc2ccc(-c3nnc(S)n3C)cc2)cc1 |  |  | 2.86 | 3.89
